According to ChEMBL document CHEMBL2150862, “Cyclopropyl-spiro-piperidines Useful as Sodium Channel Blockers: Patent Highlight” (ACS Med Chem Lett, 2012):

What follows are compounds tested against Sodium channel protein type 9 subunit alpha (Homo sapiens, UniProt Q15858) (assay: Inhibition of Nav1.7 by cell-based FLIPR assay).
Chain of Sodium channel protein type 9 subunit alpha (Q15858 whole entry): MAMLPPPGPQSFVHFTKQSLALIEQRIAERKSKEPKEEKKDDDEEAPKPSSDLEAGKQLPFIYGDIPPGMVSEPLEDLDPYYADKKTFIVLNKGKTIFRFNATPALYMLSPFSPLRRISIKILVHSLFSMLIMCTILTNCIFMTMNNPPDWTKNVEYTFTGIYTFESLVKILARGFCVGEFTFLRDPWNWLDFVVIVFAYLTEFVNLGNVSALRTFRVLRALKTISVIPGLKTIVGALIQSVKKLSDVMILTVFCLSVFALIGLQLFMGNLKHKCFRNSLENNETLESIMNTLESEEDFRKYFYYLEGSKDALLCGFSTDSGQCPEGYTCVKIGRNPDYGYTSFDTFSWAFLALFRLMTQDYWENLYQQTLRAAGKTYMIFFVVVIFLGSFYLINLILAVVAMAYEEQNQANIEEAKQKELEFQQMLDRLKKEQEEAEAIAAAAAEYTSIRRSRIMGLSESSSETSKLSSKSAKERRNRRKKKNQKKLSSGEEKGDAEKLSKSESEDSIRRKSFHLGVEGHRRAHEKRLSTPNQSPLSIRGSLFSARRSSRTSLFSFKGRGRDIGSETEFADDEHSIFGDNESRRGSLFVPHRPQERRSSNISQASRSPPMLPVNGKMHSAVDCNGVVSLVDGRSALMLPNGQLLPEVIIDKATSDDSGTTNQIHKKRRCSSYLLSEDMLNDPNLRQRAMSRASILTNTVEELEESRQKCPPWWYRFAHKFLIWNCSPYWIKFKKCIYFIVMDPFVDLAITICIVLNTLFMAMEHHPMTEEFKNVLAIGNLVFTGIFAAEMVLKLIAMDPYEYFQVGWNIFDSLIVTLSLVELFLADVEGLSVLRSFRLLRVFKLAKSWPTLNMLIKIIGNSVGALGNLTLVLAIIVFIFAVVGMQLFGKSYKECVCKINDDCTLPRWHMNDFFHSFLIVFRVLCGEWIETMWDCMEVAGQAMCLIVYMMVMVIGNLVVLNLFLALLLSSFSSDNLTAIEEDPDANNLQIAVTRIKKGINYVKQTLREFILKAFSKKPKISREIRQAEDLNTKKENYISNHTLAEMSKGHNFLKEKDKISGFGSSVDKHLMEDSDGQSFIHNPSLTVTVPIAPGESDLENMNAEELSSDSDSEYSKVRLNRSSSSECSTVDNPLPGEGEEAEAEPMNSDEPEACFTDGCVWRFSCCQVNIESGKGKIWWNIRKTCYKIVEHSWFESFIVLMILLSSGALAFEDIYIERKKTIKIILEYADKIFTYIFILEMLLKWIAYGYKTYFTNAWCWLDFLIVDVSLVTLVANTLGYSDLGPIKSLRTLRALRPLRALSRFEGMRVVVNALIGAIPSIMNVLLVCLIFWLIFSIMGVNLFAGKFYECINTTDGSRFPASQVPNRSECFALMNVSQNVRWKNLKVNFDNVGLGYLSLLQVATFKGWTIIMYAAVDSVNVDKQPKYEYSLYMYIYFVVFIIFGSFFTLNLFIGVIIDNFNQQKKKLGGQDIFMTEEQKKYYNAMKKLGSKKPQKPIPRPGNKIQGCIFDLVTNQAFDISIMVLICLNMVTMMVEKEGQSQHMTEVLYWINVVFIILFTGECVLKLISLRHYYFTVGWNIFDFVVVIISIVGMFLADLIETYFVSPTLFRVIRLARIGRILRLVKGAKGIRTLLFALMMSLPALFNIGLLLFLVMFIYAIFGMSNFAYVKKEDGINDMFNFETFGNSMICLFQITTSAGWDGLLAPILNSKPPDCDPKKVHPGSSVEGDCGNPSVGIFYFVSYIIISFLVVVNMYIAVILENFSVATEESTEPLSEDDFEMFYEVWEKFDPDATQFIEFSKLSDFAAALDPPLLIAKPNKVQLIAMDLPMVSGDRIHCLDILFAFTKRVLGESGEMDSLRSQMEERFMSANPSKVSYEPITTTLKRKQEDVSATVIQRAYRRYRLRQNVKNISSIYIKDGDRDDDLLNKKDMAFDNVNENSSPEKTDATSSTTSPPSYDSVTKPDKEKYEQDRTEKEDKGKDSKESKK
Compound `c1ccc(CN2CCC3(CC2)CC3CNc2ccccc2N2CCCCC2)cc1` (stereo unspecified) has an IC50 of 291 nM. `c1ccc(CC(NCC2CC23CCN(c2ccccc2)CC3)c2ccccc2)cc1` (stereo unspecified) showed an IC50 of 177 nM. With `CN(C)c1ccc(C(=O)NC2CC23CCN(c2ccccc2)CC3)c2ccccc12` (stereo unspecified) the IC50 was 98.3 nM. Compound `CN(C)c1cccc2c(C(=O)NC3CC34CCN(c3ccccc3)CC4)cccc12` (stereo unspecified) has an IC50 of 237 nM. With `O=C(NC1CC12CCN(c1ccccc1)CC2)c1ccc(F)c2ccccc12` (stereo unspecified) the IC50 was 188 nM. `CN(C)c1ccc(C(=O)NC2CC23CCN(c2cc(F)cc(F)c2)CC3)c2ccccc12` (stereo unspecified) showed an IC50 of 151 nM.
